Where two headings read alike, the source gives them in different places.
How the values were obtained:
MimiCE = molecular target: T1, MimiCE (Acanthamoeba polyphaga mimivirus, UniProt Q5UQX1); assay: biochemical; type: biochemical; conditions: for IC50/IC50 TbCet1, MimiCE: ratio in parentheses;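 as to all read-outs here: mimivirus capping enzyme triphosphatase ATPase reaction, radiolabeled ATP hydrolysis to Pi quantified by TLC after 10 min, normalized to no-inhibitor control with 5% DMSO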
T1 construct: the N-terminal RTPase domain (amino acids [aa] 1 to 237) of mimivirus capping enzyme (MimiCE); HisSmt3 (N, cleaved yes); made in house; host or cells: Escherichia coli

SceCet1 = molecular target: T2, SceCet1 (Saccharomyces cerevisiae, UniProt O13297); assay: TLC assay for 32Pi release from [γ-32P]ATP, SceCet1; type: biochemical; conditions: for IC50/IC50 TbCet1, SceCet1: ratio in parentheses
T2 construct: C-terminal catalytic domain (aa 241 to 539) of S. cerevisiae RTPase (SceCet1); made in house; host or cells: Escherichia coli

CthTTM = molecular target: T3, CthTTM (Acetivibrio thermocellus, UniProt A3DIJ8); assay: TLC assay for 32Pi release from [γ-32P]ATP, CthTTM; type: biochemical, Clostridium thermocellum; conditions: for IC50/IC50 TbCet1, CthTTM: ratio in parentheses
T3 sequence (A3DIJ8 1-156): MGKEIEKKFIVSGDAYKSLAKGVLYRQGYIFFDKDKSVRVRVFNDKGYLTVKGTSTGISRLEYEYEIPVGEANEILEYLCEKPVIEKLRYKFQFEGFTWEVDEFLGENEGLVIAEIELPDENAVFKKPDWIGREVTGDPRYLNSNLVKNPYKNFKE

Lef4 = molecular target: T4, Lef4 (Autographa californica nuclear polyhedrosis virus, UniProt P41477); assay: TLC assay for 32Pi release from [γ-32P]ATP, Lef4; type: biochemical, Autographa californica nucleopolyhedrovirus (AcNPV); conditions: for IC50/IC50 TbCet1, Lef4: ratio in parentheses;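 as to all read-outs here: Lef4 RNA triphosphatase cleaving radiolabelled ATP over 10 min at 37°C, hydrolysis set relative to inhibitor-free 5% DMSO controls, comparisons made against TbCet1 tested the same way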
T4 construct: the N-terminal RTPase domain (aa 1 to 236) of AcNPV Lef4 capping enzyme; HisSmt3 (N, cleaved yes); made in house; host or cells: Escherichia coli

TbCet1 [1] = molecular target: T5, TbCet1 (Trypanosoma brucei brucei, UniProt Q582T2); assay: TLC assay for 32Pi release from [γ-32P]ATP, TbCet1; conditions: for IC50: 2.2 nM TbCet1, 0.2 mM ATP, 2 mM Mn2+, 10 min 37°C; for inhibition of TbCet1 (in words): 32P phosphate release assay
T5 sequence (Q582T2 1-253): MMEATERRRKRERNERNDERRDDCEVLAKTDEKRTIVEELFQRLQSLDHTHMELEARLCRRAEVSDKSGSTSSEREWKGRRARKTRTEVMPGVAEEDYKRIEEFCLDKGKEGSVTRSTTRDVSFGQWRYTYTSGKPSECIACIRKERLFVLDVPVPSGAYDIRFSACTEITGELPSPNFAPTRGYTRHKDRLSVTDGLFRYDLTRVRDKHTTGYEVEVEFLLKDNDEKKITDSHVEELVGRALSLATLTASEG

TbCet1 [2] = molecular target: T5, TbCet1; assay: colorimetric malachite green HTS assay of Pi release from ATP by TbCet1; conditions: read-out: IC50 TbCet1; small-scale test library screens performed here and previously [37]
[3] = read-out: IC50 MimiCE, 7 nM MimiCE, 37°C
[4] = 25 nM SceCet1, 30°C, read-out: IC50 SceCet1
[5] = 500 nM CthTTM, 37°C, read-out: IC50 CthTTM
[6] = 50 nM Lef4, 37°C, read-out: IC50 Lef4
[7] = read-out: IC50 SceCet1, 25 nM SceCet1, 30°C
[8] = read-out: IC50 CthTTM, 500 nM CthTTM, 37°C
[9] = read-out: IC50 TbCet1 by 32P assay

T4 sequence (P41477 1-236): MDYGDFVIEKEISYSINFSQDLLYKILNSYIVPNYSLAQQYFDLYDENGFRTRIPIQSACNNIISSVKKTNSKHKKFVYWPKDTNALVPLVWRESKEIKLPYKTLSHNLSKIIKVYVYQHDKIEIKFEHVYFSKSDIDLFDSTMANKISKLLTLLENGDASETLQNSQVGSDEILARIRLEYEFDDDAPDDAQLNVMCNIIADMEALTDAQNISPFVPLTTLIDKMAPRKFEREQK
T2 sequence (O13297 241-539): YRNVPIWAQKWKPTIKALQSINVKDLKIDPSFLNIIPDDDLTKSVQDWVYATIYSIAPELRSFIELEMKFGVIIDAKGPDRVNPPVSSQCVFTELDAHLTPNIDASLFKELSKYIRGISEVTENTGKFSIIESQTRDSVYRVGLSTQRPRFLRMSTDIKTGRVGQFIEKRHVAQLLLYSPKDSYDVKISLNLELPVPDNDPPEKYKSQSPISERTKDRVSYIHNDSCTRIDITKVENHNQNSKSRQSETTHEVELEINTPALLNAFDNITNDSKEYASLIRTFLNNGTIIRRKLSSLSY
T1 sequence (Q5UQX1 1-237): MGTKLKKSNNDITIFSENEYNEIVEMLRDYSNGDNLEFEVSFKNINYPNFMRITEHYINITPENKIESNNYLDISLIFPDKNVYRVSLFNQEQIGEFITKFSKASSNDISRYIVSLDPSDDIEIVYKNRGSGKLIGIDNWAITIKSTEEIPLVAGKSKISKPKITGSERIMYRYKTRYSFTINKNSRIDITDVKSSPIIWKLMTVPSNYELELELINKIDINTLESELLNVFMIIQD

Compound	IC50/IC50 TbCet1, MimiCE (MimiCE)	IC50/IC50 TbCet1, CthTTM (CthTTM)	IC50 (Lef4; [6]) [µM]	IC50/IC50 TbCet1, Lef4 (Lef4)	IC50 (MimiCE) [µM]	IC50 (TbCet1 [1]; IC50 TbCet1 by 32P assay) [µM]	IC50 (TbCet1 [1]; [9]) [µM]	other results
O=C(/C=C/c1ccc(O)c(O)c1)OC1[C@H](OC(=O)/C=C/c2ccc(O)c(O)c2)CC(O)(C(=O)O)C[C@H]1OC(=O)/C=C/c1ccc(O)c(O)c1 (stereo in doubt) [Compound 1D, 3,4,5-Tricaffeoylquinic acid]	107	1,067	7.2	48	–	–	–	fold lower potency against MimiCE than against TbCet1 (MimiCE): 107 fold; IC50 (MimiCE; [3]): 16 µM; fold lower potency against SceCet1 than against TbCet1 (SceCet1): 67 fold; IC50 (SceCet1; [4]): 10 µM; IC50/IC50 TbCet1, SceCet1 (SceCet1): 67; fold lower potency against CthTTM than against TbCet1 (CthTTM): 1,100 fold; IC50 (CthTTM; [5]): 160 µM; fold lower potency against Lef4 than against TbCet1 (Lef4): 48 fold
O=C(Oc1cc(C(=O)O[C@@H]2C[C@@](O)(C(=O)O)C[C@@H](O)[C@@H]2O)cc(O)c1O)c1cc(O)c(O)c(O)c1 [Compound 1C, 5-galloyl-galloylquinic acid]	–	–	75	682	–	–	–	IC50 (SceCet1; [7]): > 500 µM; IC50 (CthTTM; [8]): > 500 µM; fold lower potency against Lef4 than against TbCet1 (Lef4): 680 fold; fold more potent as TbCet1 inhibitor than 5-galloylquinic acid (compound 1O) (TbCet1 [1]): 1,100 fold
O=C(/C=C/c1ccc(O)c(O)c1)O[C@@H]1C[C@](OC(=O)/C=C/c2ccc(O)c(O)c2)(C(=O)O)C[C@@H](OC(=O)/C=C/c2ccc(O)c(O)c2)[C@H]1O [Compound 1E, 1,3,5-tricaffeoylquinic acid]	44	174	5.6	29	8.4	0.19	–	IC50 (SceCet1; [4]): 29 µM; IC50/IC50 TbCet1, SceCet1 (SceCet1): 153; IC50 (CthTTM; [5]): 33 µM
O=C(Oc1cc(C(=O)O[C@@H]2C[C@@](O)(C(=O)O)C[C@@H](OC(=O)c3cc(O)c(O)c(O)c3)[C@@H]2O)cc(O)c1O)c1cc(O)c(O)c(O)c1 [Compound 1F, 3-galloyl,5-galloyl-galloylquinic acid]	15	95	33	150	–	–	–	IC50 (MimiCE; [3]): 3.4 µM; IC50 (SceCet1; [7]): > 500 µM; IC50 (CthTTM; [8]): 21 µM
O=C(/C=C/c1ccc(O)c(O)c1)O[C@@H]1C[C@](OC(=O)/C=C/c2ccc(O)c(O)c2)(C(=O)O)C[C@@H](O)[C@H]1O [Compound 1G, 1,3-dicaffeoylquinic acid]	11	162	22	65	–	–	–	IC50 (MimiCE; [3]): 3.7 µM; IC50 (SceCet1; [4]): > 500 µM; IC50 (CthTTM; [5]): 55 µM
O=C(/C=C/c1ccc(O)cc1)O[C@@H]1[C@H](O)C[C@@](O)(C(=O)O)C[C@H]1OC(=O)/C=C/c1ccc(O)cc1 [Compound 1H, 3,4-dicoumaroylquinic acid]	40	–	140	108	–	–	1.3	IC50 (MimiCE; [3]): 52 µM; IC50 (SceCet1; [7]): > 500 µM; IC50 (CthTTM; [8]): > 500 µM
O=C(/C=C/c1ccccc1)O[C@@H]1C[C@](OC(=O)/C=C/c2ccccc2)(C(=O)O)C[C@@H](OC(=O)/C=C/c2ccccc2)[C@H]1OC(=O)/C=C/c1ccccc1 [Compound 1I, tetracinnamoylquinic acid]	11	11	6	4	17	1.6	–	IC50 (SceCet1): > 500 µM; IC50 (CthTTM): 17 µM; fold less potent as TbCet1 inhibitor than tetracaffeoylquinic acid (compound 1A) (TbCet1 [1]): 120 fold
COc1ccc(/C=C/C(=O)O[C@@H]2C[C@@](O)(C(=O)O)C[C@@H](O)[C@@H]2O)cc1O [Compound 1J, 5-p-feruoylquinic acid]	–	–	–	–	–	–	2.4	IC50 (SceCet1; [4]): > 500 µM; IC50 (CthTTM; [5]): > 500 µM
O=C(OC1[C@H](OC(=O)c2ccccc2)CC(OC(=O)c2ccccc2)(C(=O)O)C[C@H]1OC(=O)c1ccccc1)c1ccccc1 (stereo partly shown) [Compound 1K]	3	12	46	8	20	5.8	–	IC50 (SceCet1): > 500 µM; IC50 (CthTTM): 72 µM
COc1cc(/C=C/C(=O)O[C@@H]2C[C@](O)(C(=O)O)C[C@@H](O)[C@H]2O)ccc1O [Compound 1L, 5-feruoylquinic acid]	–	–	> 500	–	–	–	12	IC50 (MimiCE; 7 nM MimiCE, 37°C, read-out: IC50 MimiCE): > 500 µM; IC50 (SceCet1; [4]): > 500 µM; IC50 (CthTTM; [5]): > 500 µM
O=C(/C=C/c1ccc(O)cc1)O[C@@H]1CC(O)(C(=O)O)C[C@@H](OC(=O)/C=C/c2ccc(O)cc2)C1O (stereo partly shown) [Compound 1M, 3,5-dicoumaroylquinic acid]	–	–	> 500	–	> 500	24	–	IC50 (SceCet1): > 500 µM; IC50 (CthTTM): > 500 µM; fold drop in potency of TbCet1 inhibition versus 3,5-dicaffeoylquinic acid (compound 1B) (TbCet1 [1]): 340 fold
O=C(/C=C/c1ccc(O)cc1)OC1[C@H](O)CC(O)(C(=O)O)C[C@H]1O (stereo partly shown) [Compound 1N]	–	–	> 500	–	> 500	25	–	IC50 (SceCet1; [4]): > 500 µM; IC50 (CthTTM; [5]): > 500 µM
O=C(O[C@@H]1C[C@@](O)(C(=O)O)C[C@@H](O)[C@@H]1O)c1cc(O)c(O)c(O)c1 [Compound 1O, 5-galloylquinic acid]	–	–	> 500	–	> 500	125	–	activity against MimiCE (in words) (MimiCE): no activity; IC50 (SceCet1): 10 µM; IC50/IC50 TbCet1, SceCet1 (SceCet1): 0.08; IC50 (CthTTM): > 500 µM; activity against CthTTM (in words) (CthTTM): no activity; activity against Lef4 (in words) (Lef4): no activity
COc1cc(C=CC(=O)OC2[C@H](O)CC(O)(C(=O)O)C[C@H]2O)ccc1O (stereo partly shown) [Compound 1P, 4-feruoylquinic acid]	–	–	–	–	–	–	160	fold less effective against TbCet1 than 5-feruoylquinic acid (TbCet1 [1]): 13 fold
COc1cc(/C=C/C(=O)OC2(C(=O)O)C[C@@H](O)C(O)[C@H](O)C2)ccc1O (stereo partly shown) [Compound 1R, 1-feruoylquinic acid]	–	–	–	–	–	–	> 500	inhibition of TbCet1 (in words) (TbCet1 [1]): inactive
O=C(/C=C/c1ccc(O)c(O)c1)O[C@@H]1C[C@@](O)(C(=O)O)C[C@@H](O)[C@@H]1O [Compound 1T, 5-caffeoylquinic acid]	–	–	–	–	–	–	> 500	–
O=C(O)/C=C/c1ccc(O)c(O)c1 [Compound 3B, caffeic acid]	–	–	–	–	> 500	29	–	activity against MimiCE (in words) (MimiCE): inactive; IC50 (SceCet1): > 500 µM; IC50 (CthTTM; [5]): 310 µM; IC50 (Lef4): 75 µM
O=C(/C=C/c1ccc(O)c(O)c1)O[C@@H]1[C@H](OC(=O)/C=C/c2ccc(O)c(O)c2)C[C@]2(OC(=O)/C=C/c3ccc(O)c(O)c3)C[C@H]1OC2=O [Compound 6A, 1,4,5-tricaffeoylquinide]	17	53	2.6	22	2	0.12	–	IC50 (SceCet1): 2 µM; IC50/IC50 TbCet1, SceCet1 (SceCet1): 17; IC50 (CthTTM): 6.4 µM
CC(=O)O[C@@]12C[C@@H](OC(=O)/C=C/c3ccc(O)c(O)c3)[C@@H](OC(=O)/C=C/c3ccc(O)c(O)c3)[C@@H](C1)OC2=O [Compound 6C, 1-acetyl,4,5-dicaffeoylquinide]	4	13	21	6	15	3.6	–	IC50 (SceCet1): 14 µM; IC50/IC50 TbCet1, SceCet1 (SceCet1): 4; IC50 (CthTTM): 46 µM; fold lowered potency against TbCet1 versus compound 6A (TbCet1 [1]; acetate for the R1 caffeic acid): 30 fold
O=C(C=Cc1ccccc1)OC1C=C(C(=O)O)CC(OC(=O)C=Cc2ccccc2)C1O (stereo not shown) [Compound 6D, 3,5-dicannamolylshikimate]	–	–	–	–	–	–	> 500	inhibition of TbCet1 (in words) (TbCet1 [1]): did not inhibit
O=C(/C=C/c1ccc(O)c(O)c1)O[C@@H]1CC(C(=O)O)=C[C@@H](O)[C@H]1O [Compound 6E, 5-caffeoylshikimate]	–	–	–	–	–	–	> 500	inhibition of TbCet1 (in words) (TbCet1 [1]): did not inhibit
O=C(O)[C@]1(O)C[C@@H](O)[C@@H](O)[C@H](O)C1 [Quinic acid, reference compound]	–	–	–	–	–	–	–	inhibition of TbCet1 (in words) (TbCet1 [1]): no inhibition
O=C(O)c1cc(O)c(O)c(O)c1 [gallic acid, 3,4,5-trihydroxybenzoic acid, reference compound]	–	–	–	–	–	–	–	inhibition of TbCet1 (in words) (TbCet1 [1]): no inhibition
pentagalloylgalloylglucose [tannic acid]	–	–	–	–	–	–	–	IC50 (TbCet1 [2]): 0.06 µM
